Measurements taken from patent US12551463B2, “Dosing of a Bruton's tyrosine kinase inhibitor” (Loxo Oncology, Inc., priority 2019, dated 2026).
“Also recorded” adds a separate entry of the source.

Legend:
[1] = system: CLL/SLL and B-cell NHL; test: Phase 1/2 clinical study of oral BTK-I monotherapy, all patients; format: in vivo, human
Source text: (§1) The study is an open-label, multi-center study of oral BTK-I to evaluate safety and efficacy as monotherapy and as part of combination therapy in patients with CLL/SLL and NHL who have failed or are intolerant to standard of care. This study includes monotherapy as well as combination treatment parts. The monotherapy part includes Phase 1 dose escalation and dose expansion as well as Phase 2. The combination therapy part is a Phase 1b (safety assessment and expansion) of BTK-I in combination with venetoclax, with or without anti-CD20 therapy. Phase 1 dose escalation will proceed prior to start of Phase 1b or Phase 2. Once a recommended Phase 2 dose (RP2D) is identified in Phase 1, enrollment can commence to the Phase 1b combination therapies and Phase 2 monotherapy cohorts.
(§2) The primary objectives of the Phase 1 Dose Escalation and Expansion part of the study is to determine the maximum tolerated dose (MTD)/RP2D of oral BTK-I in patients with previously treated CLL/SLL and B-cell NHL.
(§3) Patients are enrolled with histologically confirmed CLL/SLL or B-cell NHL who have failed or are intolerant to at least two prior standard of care regimens given in combination or sequentially or have received at least one prior BTK inhibitor-containing regimen when BTK inhibitor is approved in first line.
(§4) BTK-I is administered in oral tablet form. Dose escalation will follow a 3+3 design starting with a 25 mg QD dose (followed by 50 mg QD (dose level cohort 2), 100 mg QD (dose level cohort 3), 150 mg QD (dose level cohort 4), 200 mg QD (dose level cohort 5), 250 mg QD (dose level cohort 6), and 300 mg QD (dose level cohort 7)). Cycle length will be 28 days. The drug limiting toxicity (DLT) period will be 28 days, commencing with the first dose of BTK-I.
(§5) The primary objective of the Phase 2 is to assess the primary anti-tumor activity of BTK-I based on overall response rate (ORR) and as assessed by the Independent Review Committee. […]
(§6) Dosing during Phase 2 will be at the RP2D of 200 mg QD. […] The dose (and schedule) chosen for Phase 2 may be changed by the SRC based on emerging data (e.g., PK, safety, and/or efficacy) as long as the new dose is not greater than the highest dose that has a DLT <33% and is determined to be safe by the SRC in Phase 1. […]

[2] = system: Waldenstrom's macroglobulinemia; test: Phase 1/2 clinical study, Waldenstrom's macroglobulinemia patients; format: in vivo, human
Source text: as §1, §2, §3, §4
(§7) The primary objective of the Phase 2 is to assess the primary anti-tumor activity of BTK-I based on overall response rate (ORR) and as assessed by the Independent Review Committee.
(§8) At the RP2D up to ˜600 patients with CLL/SLL or NHL will be enrolled to one of the following cohorts: • Cohort 1: Non-blastoid MCL patients treated with a prior BTK-inhibitor. • Cohort 2: CLL/SLL patients treated with 2 or more prior regimens, including a BTK inhibitor-containing regimen. • Cohort 3: CLL/SLL patients with no prior therapy. • Cohort 4: CLL/SLL patients treated with prior therapy, BTK inhibitor naive. • Cohort 5: WM patients treated with a prior BTK inhibitor containing regimen. • Cohort 6: MZL patients treated with a prior BTK inhibitor containing regimen. • Cohort 7: (Not otherwise specified) defined as CLL/SLL or NHL not otherwise specified in Cohorts 1 through 6, inclusive of CLL/SLL or NHL, Richter's transformation, blastoid MCL, and patients with history of CNS involvement or primary CNS lymphoma.
(§9) Dosing during Phase 2 will be at the RP2D of 200 mg QD. The cycle length will be 28 days. BTK-I will be administered to the Phase 2 patients in oral tablet form at the RP2D. The dose (and schedule) chosen for Phase 2 may be changed by the SRC based on emerging data (e.g., PK, safety, and/or efficacy) as long as the new dose is not greater than the highest dose that has a DLT <33% and is determined to be safe by the SRC in Phase 1. If the RP2D is changed based on emerging data, patients enrolled to Phase 2 at a different dose may have the dose changed to the new dose.

[3] = system: TMD8 BTK WT cells; test: In vivo mouse xenograft study, TMD8 BTK WT; design: species or system mice; conditions: BTK-I BID alone; BTK WT driven TMD8 (DLBCL) xenograft
Method: In all studies, test articles are administered alone and in combination, following different dosing regimens.
Human TMD8 BTK WT, TMD8 BTK C481S or REC-1 cells are injected subcutaneously in the right flank of mice. When tumors reach a mean volume between 150 mm^3 and 400 mm^3, mice are randomized based on their tumor volumes. Mice are next dosed for 14 to 23 days depending on the study design. The potencies of the compounds stand-alone or in combination on the inhibition of the tumor growth are assessed based on the tumor volume changes and weights after collection at the end of the study. Additionally, in the TMD8 studies, the plasma concentrations of test articles are measured at multiple time points after the last dose.

[4] = system: CLL/SLL; test: Phase 1/2 clinical study, CLL/SLL patients; format: in vivo, human
Source text: as §1, §2, §3, §4, §7, §8, §9

[5] = system: CLL/SLL, MCL, Waldenstrom's macroglobulinemia and follicular lymphoma patients; test: Human clinical trials of BTK-I: overall response rate in efficacy-evaluable patients; format: in vivo
Method: (Mato A., et al., “Toxicities and Outcomes of 616 Ibrutinib-Treated Patients in the United States: A Real-World Analysis”, Haematologica, 2018, 103(5), 874-879.) Between Mar. 21, 2019 and Sep. 27, 2020, across 7 dose levels ranging from 25 mg once daily (QD) to 300 mg QD in 323 patients, the only treatment-emergent adverse events regardless of attribution or grade seen in ≥10% of patients (n=323) were fatigue (n=65, 20%), diarrhea (n=55, 17%), and contusion (n=42, 13%). In 121 efficacy-evaluable cBTKi-treated chronic lymphocytic leukemia (CLL) patients (median prior lines=4), overall response rate (ORR) was 62% (95% CI: 53-71), rising to 84% in patients followed for ≥10 months.

[6] = system: MZL; test: Phase 1/2 clinical study, MZL patients; format: in vivo, human
Source text: as §1, with “cohorts. […]” for “cohorts.”
as §5, §6

[7] = of 13 with prior covalent BTK inhibitor

For COc1ccc(F)cc1C(=O)NCc1ccc(-c2nn([C@@H](C)C(F)(F)F)c(N)c2C(N)=O)cc1 [BTK-I, (S)-5-amino-3-(4-((5-fluoro-2-methoxybenzamido)methyl)phenyl)-1-(1,1,1-trifluoropropane-2-yl)-1H-pyrazole-4-carboxamide], the “responses at first dose level” value ([1]; 25 mg QD) was “Responses were observed”, the “clinical activity/efficacy across dose levels” value ([1]; 7 dose levels, 25 mg to 300 mg QD) was “demonstrated activity across all dose levels; also recorded: Efficacy was observed at all dose levels” and the “treated patients remaining on BTK-I” value ([1]; 237 of 323 at data cut) was 73%. For the same compound, the “responses in remaining efficacy-evaluable patients” value ([1]; remaining 39 patients (other B-cell malignancies)) was 8, the ORR ([2]; 13 patients with prior covalent BTK inhibitor) was 69% and the ORR ([2]; 19 efficacy-evaluable WM patients) was 68%. The WM responders ongoing ([2]; median follow-up 4.6 months) was “Ten of 13”, the “MR, patients” value [2, 7] was 4 and the “PR, patients” value [2, 7] was 5. The “PR, patients” value ([2]; of 19 efficacy-evaluable) was 9, the “minor response (MR), patients” value ([2]; of 19 efficacy-evaluable) was 4 and the “inhibition of xenograft tumor growth” value [3] was “potently inhibited the growth”. It also gave an ORR ([4]; 28 patients with 17p deletion, TP53 mutation, or both) of 79%, an ORR ([4]; 121 BTK-pretreated patients, CI: 53-71%) of 62% and an ORR ([4]; 139 efficacy-evaluable CLL/SLL patients, all dose levels, 95% CI: 55-71) of 63%. For the same compound, the “patients remaining on BTK-I” value ([4]; all CLL/SLL patients) was 88%, the ORR ([4]; at ≥10 months (25/29)) was 86% and the ORR ([4]; discontinued covalent BTK inhibitor for progression [53/79]) was 67%. For the same compound, the ORR ([4]; discontinued covalent BTK inhibitor for toxicity or another reason [22/42]) was 52%, the ORR ([4]; followed for at least 8 months (35/49)) was 71% and the “BTK C481 mutant allele fraction from peripheral blood mononuclear cells” value ([4]; majority of responding patients) was “decreased over time”. The “responding patients no longer on therapy” value ([4]; of 88 responders (4 progressed, 1 electively discontinued)) was 5, the “non-evaluable (NE), patients” value ([4]; of 139, discontinued prior to first response assessment) was 5 and the “PR-L, patients” value ([4]; of 139 efficacy-evaluable) was 19. For the same compound, the “partial response (PR), patients” value ([4]; of 139 efficacy-evaluable) was 69, the “progressive disease (PD), patients” value ([4]; of 139 efficacy-evaluable) was 1 and the “stable disease (SD), patients” value ([4]; of 139 efficacy-evaluable) was 45. The ORR ([4]; progression on prior covalent BTK inhibitor, with BTK C481 mutation [15/20]) was 75%, the ORR ([4]; progression on prior covalent BTK inhibitor, without BTK C481 mutation [18/30]) was 60% and the ORR ([5]; 52 efficacy-evaluable cBTKi-treated MCL patients, 95% CI: 38-66) was 52%. For the same compound, the “overall response rate (ORR)” value ([5]; 121 efficacy-evaluable cBTKi-treated CLL patients, median prior lines=4, 95% CI: 53-71) was 62%, the ORR ([5]; CLL/SLL patients with BTK C481-mutant disease (17/24)) was 71% and the ORR ([5]; CLL/SLL patients with BTK-wildtype disease (43/65)) was 66%. For the same compound, the ORR ([5]; CLL/SLL patients with cBTKi intolerance (22/42)) was 52%, the ORR ([5]; CLL/SLL patients with prior cBTKi resistance (53/79)) was 67% and the ORR ([5]; Waldenstrom's macroglobulinemia (WM), n=19) was 68%. For the same compound, the “overall response rate (ORR)” value ([5]; cBTKi-treated CLL patients followed for ≥10 months) was 84%, the ORR ([5]; follicular lymphoma (FL), n=8) was 50% and the “responding patients who remain progression-free” value ([5]; of 117 responding CLL or MCL patients) was “all but 8”. The responses/patients [6] was 2/9.
